The record followed here is ChEMBL document CHEMBL1140635, “Computational modeling tools for the design of potent antimalarial bisbenzamidines: overcoming the antimalarial potential of pentamidine” (Bioorg Med Chem, 2007).

As a reminder, the IC50 is the midpoint of a concentration-inhibition curve.

The assay has as its system Plasmodium falciparum. Put plainly: Antiplasmodial activity against chloroquine-sensitive Plasmodium falciparum D6 by LDH reporter assay. The class given is functional, organism-based.
On to `N=C(N)c1ccc(OCc2ccccc2COc2ccc(C(=N)N)cc2)cc1`, for which the IC50 was found to be 0.313 µM.

Consider `CCCCCCCCCCNC(=N)c1ccc(N2CCN(c3ccc(C(=N)NCCCCCCCCCC)cc3)CC2)cc1`, for which the IC50 was 0.075 µM.

Consider `c1cc(N2CCN(c3ccc(C4=NCCN4)cc3)CC2)ccc1C1=NCCN1`, for which half-maximal inhibition (IC50) was put at 0.089 µM.

`N=C(N)c1ccc(OCCCCCOc2ccc(C(=N)N)cc2)cc1` [PENTAMIDINE] yielded a half-maximal inhibitory concentration (IC50) of 0.278 µM. This IC50 is about 3.1-fold higher than that of the compound before.

`CCCCCCCCNC(=N)c1ccc(N2CCN(c3ccc(C(=N)NCCCCCCCC)cc3)CC2)cc1` registered an IC50 of 0.138 µM.

The compound `c1cc(C2=NCCN2)ccc1CC1CCN(c2ccc(C3=NCCN3)cc2)CC1` gave an IC50 of 0.402 µM.

As to `CCCCCCCCCNC(=N)c1ccc(N2CCN(c3ccc(C(=N)NCCCCCCCCC)cc3)CC2)cc1`, it took 0.088 µM to reach half-maximal inhibition (IC50). This IC50 is about 4.6-fold lower than that of the compound before.

On to `CNC(=N)c1ccc(N2CCN(c3ccc(C(=N)NC)cc3)CC2)cc1`, for which the IC50 was determined as 0.862 µM.

With `N=C(NC1CCC1)c1ccc(N2CCN(c3ccc(C(=N)NC4CCC4)cc3)CC2)cc1`, the IC50 was 0.007 µM.

`N=C(N)c1ccc(OCc2cccc(COc3ccc(C(=N)N)cc3)c2)cc1` registered an IC50 of 0.085 µM.

In the case of `CCCCCCNC(=N)c1ccc(N2CCN(c3ccc(C(=N)NCCCCCC)cc3)CC2)cc1`, the IC50 was determined as 0.035 µM.

Consider `c1ccc2[nH]c(-c3ccc(N4CCN(c5ccc(-c6nc7ccccc7[nH]6)cc5)CC4)cc3)nc2c1`, for which the IC50 was 4.88 µM.

Compound `CCCCCNC(=N)c1ccc(N2CCN(c3ccc(C(=N)NCCCCC)cc3)CC2)cc1` yielded an IC50 of 0.021 µM.

For the compound `CCCCNC(=N)c1ccc(N2CCCN(c3ccc(C(=N)NCCCC)cc3)CC2)cc1`, the midpoint of inhibition, the IC50, lay at 0.018 µM.

`N=C(NC1CCCCCC1)c1ccc(N2CCN(c3ccc(C(=N)NC4CCCCCC4)cc3)CC2)cc1`: the IC50 was found to be 0.036 µM.

`CCCCCCCCCCCCNC(=N)c1ccc(N2CCN(c3ccc(C(=N)NCCCCCCCCCCCC)cc3)CC2)cc1` gave an IC50 of 3.89 µM. Compared with the last compound, the IC50 is about 110-fold higher.

In turn, `CCCCCCCNC(=N)c1ccc(N2CCN(c3ccc(C(=N)NCCCCCCC)cc3)CC2)cc1` gave an IC50 of 0.048 µM.

Regarding `CCC(C)CNC(=N)c1ccc(N2CCN(c3ccc(C(=N)NCC(C)CC)cc3)CC2)cc1` (centres undefined), 0.069 µM corresponded to half-maximal inhibition (IC50).

For `N=C(NC1CCCCCCC1)c1ccc(N2CCN(c3ccc(C(=N)NC4CCCCCCC4)cc3)CC2)cc1`, it took 0.055 µM to reach half-maximal inhibition (IC50).

`N=C(N)c1ccc(NC(=O)CCCCC(=O)Nc2ccc(C(=N)N)cc2)cc1` registered an IC50 of 0.64 µM.

As to `c1cc(N2CCCN(c3ccc(C4=NCCN4)cc3)CC2)ccc1C1=NCCN1`, the IC50 worked out at 0.148 µM.

Take `N=C(NC1CC1)c1ccc(N2CCN(c3ccc(C(=N)NC4CC4)cc3)CC2)cc1`: the IC50 was determined as 0.358 µM. This IC50 lies about 2.4-fold higher than the previous one.

`N=C(NO)c1ccc(N2CCN(c3ccc(C(=N)NO)cc3)CC2)cc1` showed an IC50 of 8.32 µM.

The compound `N=C(N)c1ccc(OCc2ccc(COc3ccc(C(=N)N)cc3)cc2)cc1` displayed an IC50 of 0.114 µM. Compared with the last compound, the IC50 is about 73-fold lower.

As for `CCCNC(=N)c1ccc(N2CCN(c3ccc(C(=N)NCCC)cc3)CC2)cc1`, the IC50 is 0.029 µM. This IC50 is about 3.9-fold lower than that of the compound before.

The compound `c1cc(N2CCN(c3ccc(C4=NCCCN4)cc3)CC2)ccc1C1=NCCCN1` registered a half-inhibitory concentration (IC50) of 0.106 µM.

`N=C(N)c1ccc(N2CCCN(c3ccc(C(=N)N)cc3)CC2)cc1` displayed an IC50 of 1.6 µM.

With `N=C(NC1CC1)c1ccc(N2CCCN(c3ccc(C(=N)NC4CC4)cc3)CC2)cc1`, it took 0.306 µM to reach half-maximal inhibition (IC50).

The compound `N=C(N)c1ccc(COc2ccccc2OCc2ccc(C(=N)N)cc2)cc1` had an IC50 of 0.671 µM. This IC50 lies about 2.2-fold higher than the previous one.

Turning to `N=C(NCCCO)c1ccc(N2CCN(c3ccc(C(=N)NCCCO)cc3)CC2)cc1`, the IC50 was determined as 8.8 µM.

Compound `CC(C)CCNC(=N)c1ccc(N2CCN(c3ccc(C(=N)NCCC(C)C)cc3)CC2)cc1` returned an IC50 of 0.042 µM.

Turning to `c1cc(N2CCCN(c3ccc(C4=NCCCN4)cc3)CC2)ccc1C1=NCCCN1`, the 50% inhibitory concentration (IC50) is 5.11 µM. This IC50 lies about 120-fold higher than the previous one.

As for `CCNC(=N)c1ccc(N2CCN(c3ccc(C(=N)NCC)cc3)CC2)cc1`, the IC50 amounted to 0.124 µM.

Regarding `C(=C1CCN(c2ccc(C3=NCCN3)cc2)CC1)c1ccc(C2=NCCN2)cc1`, the IC50 amounted to 0.84 µM.
